Results: patent publication US7205403B2, “8-Heteroaryl xanthine adenosine A2B receptor antagonists” (King Pharmaceuticals Research and Development, Inc., priority 2002, dated 2007)

Legend:
[1] = biological target: T1, human A2B adenosine receptor (Homo sapiens, UniProt P29275); assay: [3H]DPCPX binding to human A2B receptors expressed in HEK293 cells; parameters: host or cells: HEK 293 cells (membranes); conditions: geometric mean (95% confidence interval); >1000 = no appreciable binding; read-out: Ki, [3H]DPCPX binding to human A2B receptors expressed in HEK293 cells
T1 sequence (P29275 1-332): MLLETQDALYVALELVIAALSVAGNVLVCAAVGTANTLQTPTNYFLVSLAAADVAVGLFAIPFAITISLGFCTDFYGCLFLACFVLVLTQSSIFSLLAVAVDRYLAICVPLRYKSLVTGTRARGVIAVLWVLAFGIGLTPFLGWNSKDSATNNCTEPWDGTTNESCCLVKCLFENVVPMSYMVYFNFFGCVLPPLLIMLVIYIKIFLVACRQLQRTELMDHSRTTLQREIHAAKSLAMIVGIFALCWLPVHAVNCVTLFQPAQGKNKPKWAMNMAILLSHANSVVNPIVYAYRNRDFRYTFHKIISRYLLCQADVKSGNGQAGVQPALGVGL
Experimental: HEK 293 cells transfected with the human recombinant A2B adenosine receptor were obtained from Receptor Biology, Inc. (Beltsville, Md. USA).
Binding of 1 [^3H]-DPCPX to HEK 293 cells transfected with the human recombinant A2B adenosine receptors was performed according to the method described by Varani et al., 2000. In particular, assays were carried out for 60 minutes at 25° C. in 100 μl of […] Tris HCl buffer, […] MgCl2, 1 mM EDTA, 0.1 mM benzamidine pH 7.4, 2 IU/ml adenosine deaminase containing 40 nM [^3H]-DPCPX, diluted membranes (20 μg of protein/assay) and at least 6–8 different concentration of tested compounds.
(§1) The filter bound radioactivity was counted on Top Count (efficiency 57%) with Micro-Scint 20.
(§2) The filter bound radioactivity was counted on a Top Count brand Microplate Scintillation Counter (efficiency 57%) with Micro-Scint 20. […] Inhibitory binding constant. […] Results and Discussion

[2] = biological target: T2, human A2A adenosine receptor (Homo sapiens, UniProt P29274); assay: [3H]ZM241385 binding to human A2A receptors expressed in CHO cells; conditions: read-out: Ki, [3H]ZM241385 binding to human A2A receptors expressed in CHO cells
T2 construct: expressed in transfected cells; host or cells: CHO cells (membranes)
Experimental: (§3) The cells were grown adherently and maintained in Dulbecco's modified Eagle's medium with nutrient mixture F12 without nucleosides at 37° C. in 5% CO2/95% air. The cells were washed with phosphate-buffered saline and scraped off flasks in ice cold hypotonic buffer ([…] Tris HCl, 2 mM EDTA, pH 7.4). The cell suspension was homogenized with a Polytron and the homogenate was centrifuged for 30 minutes at 48,000 g. The resultant membrane pellet was re-suspended in 50 mM Tris HCl buffer at pH 7.4 for A1 adenosine receptors; in 50 mM Tris HCl 10 mM MgCl, at pH 7.4 for A2A adenosine receptors; in 50 mM Tris HCl, 10 mM MgCl2, 1 mM EDTA, at pH 7.4 for A3 adenosine receptors and were utilized for binding assays.
as §1, §2

[3] = biological target: T3, human A3 adenosine receptor (Homo sapiens, UniProt P0DMS8); assay: [3H]MRE3008F20 binding to human A3 receptors expressed in CHO cells
T3 construct: expressed in transfected cells; host or cells: CHO cells (membranes)
T3 sequence (P0DMS8 1-318): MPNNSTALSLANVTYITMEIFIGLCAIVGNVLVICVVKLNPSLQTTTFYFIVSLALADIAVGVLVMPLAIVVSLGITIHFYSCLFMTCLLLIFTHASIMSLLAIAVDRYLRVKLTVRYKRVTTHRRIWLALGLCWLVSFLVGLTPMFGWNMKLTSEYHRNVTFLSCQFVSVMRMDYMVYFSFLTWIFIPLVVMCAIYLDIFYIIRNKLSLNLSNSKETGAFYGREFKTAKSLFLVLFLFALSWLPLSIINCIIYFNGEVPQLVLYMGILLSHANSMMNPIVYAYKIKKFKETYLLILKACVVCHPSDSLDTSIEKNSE
Experimental: as §3
Binding of [^3H]-MRE3008-F20 to CHO cells transfected with the human recombinant A3 adenosine receptors was performed according to Varani et al., 2000. Competition experiments were carried out in duplicate in a final volume of 250 μl in test tubes containing 1 nM [^3H]-MRE3008-F20, 50 mM Tris HCl buffer, […] MgCl2, pH 7.4 and 100 μl of diluted membranes (50 μg of protein/assay) and at least 6–8 different concentrations of examined ligands for 120 minutes at 4° C.
as §1, §2

T2 sequence (P29274 whole entry): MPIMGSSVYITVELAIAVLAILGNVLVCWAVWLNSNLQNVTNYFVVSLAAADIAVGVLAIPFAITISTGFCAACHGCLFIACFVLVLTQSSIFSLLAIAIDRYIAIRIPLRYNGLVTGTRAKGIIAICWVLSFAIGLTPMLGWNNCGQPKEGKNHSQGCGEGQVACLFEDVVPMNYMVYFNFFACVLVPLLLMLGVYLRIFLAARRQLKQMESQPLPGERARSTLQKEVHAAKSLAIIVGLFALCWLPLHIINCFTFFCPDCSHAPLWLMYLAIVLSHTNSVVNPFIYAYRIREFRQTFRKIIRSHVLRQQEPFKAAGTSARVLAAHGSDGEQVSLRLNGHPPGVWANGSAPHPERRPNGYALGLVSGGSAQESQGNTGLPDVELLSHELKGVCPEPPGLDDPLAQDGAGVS

Structure (SMILES) | Ki [1] [nM] | Ki [2] [nM] | Ki [3] [nM]
CCCn1c(=O)c2[nH]c(-c3cc(C(=O)O)n(C)n3)nc2n(CCC)c1=O [AS1, 1,3-di-n-propyl-8-(1-methyl-5-carboxy-1-H-pyrazol-3-yl)-xanthine] | > 1000 | > 1000 | > 1000
CCCn1c(=O)c2[nH]c(-c3cc(NC(=O)CCC(=O)O)nn3C)nc2n(CCC)c1=O [AS8, 4-{[5-(1,3-dipropyl-2,6-dioxo-2,3,6,7-tetrahydro-1H-purin-8-yl)-1-methyl-1H-pyrazol-3-yl]amino}-4-oxobutanoic acid] | > 1000 | > 1000 | > 1000
CCCn1c(=O)c2[nH]c(-c3cc(NC(=O)Cc4ccc(CC(C)C)cc4)nn3C)nc2n(CCC)c1=O [AS14, N-[5-(2,6-dioxo-1,3-dipropyl-2,3,6,9-tetrahydro-1H-purin-8-yl)-1-methyl-1H-pyrazol-3-yl]-2-(4-isobutylphenyl)acetamide] | > 1000 | > 1000 | > 1000
CCCn1c(=O)c2[nH]c(-c3cc(NC(=O)[C@@H](C)c4ccccc4)nn3C)nc2n(CCC)c1=O [AS18, (2S)-N-[5-(2,6-dioxo-1,3-dipropyl-2,3,6,7-tetrahydro-1H-purin-8-yl)-1-methyl-1H-pyrazol-3-yl]-2-phenylpropanamide] | > 1000 | > 1000 | > 1000
CCCn1c(=O)c2[nH]c(-c3cc(NC(=O)[C@H](C)c4ccccc4)nn3C)nc2n(CCC)c1=O [AS19, (2R)-N-[5-(2,6-dioxo-1,3-dipropyl-2,3,6,7-tetrahydro-1H-purin-8-yl)-1-methyl-1H-pyrazol-3-yl]-2-phenylpropanamide] | > 1000 | > 1000 | > 1000
CCCn1c(=O)c2[nH]c(-c3cc(NC(=O)Cc4ccc(N(C)C)cc4)nn3C)nc2n(CCC)c1=O [AS26, N-[5-(2,6-dioxo-1,3-dipropyl-2,3,6,9-tetrahydro-1H-purin-8-yl)-1-methyl-1H-pyrazol-3-yl]-2-[4-(N,N-dimethylamino)phenyl]acetamide] | 1630 | > 1000 | > 1000
Cn1nc(NC(=O)Cc2ccccc2)cc1-c1nc2c([nH]1)c(=O)n(C)c(=O)n2C [AS40, N-[5-(2,6-dioxo-1,3-dimethyl-2,3,6,9-tetrahydro-1H-purin-8-yl)-1-methyl-1H-pyrazol-3-yl]-2-phenylacetamide] | 569 | > 1000 | > 1000
CCCn1c(=O)c2[nH]c(-c3cc(NC(=O)Cc4ccc(O)c(OC)c4)nn3C)nc2n(CCC)c1=O [AS58, N-[5-(2,6-dioxo-1,3-dipropyl-2,3,6,9-tetrahydro-1H-purin-8-yl)-1-methyl-1H-pyrazol-3-yl]-2-(4-hydroxy-3-methoxyphenyl)acetamide] | 342 | 1760 | > 1000
CCCn1c(=O)c2[nH]c(-c3cc(OCC(=O)N4CCN(c5ccc(F)cc5)CC4)nn3C)nc2n(CCC)c1=O [AS72, 8-(5-{2-[4-(4-Fluoro-phenyl)-piperazin-1-yl]-2-oxo-ethoxy}-2-methyl-2H-pyrazol-3-yl)-1,3-dipropyl-3,7-dihydro-purine-2,6-dione] | 55 | > 1000 | > 1000
CCCn1c(=O)c2[nH]c(-c3cc(OCC(=O)Nc4ccc(F)cc4)no3)nc2n(CCC)c1=O [AS73, 1,3-di-n-propyl-8-{3-[(4-fluoro-phenylcarbamoyl)-methoxy]-isoxazol-5-yl}-xanthine] | 70 | > 1000 | > 1000
CCCn1c(=O)c2[nH]c(-c3cc(OCC(=O)Nc4ccc(OC)cc4)no3)nc2n(CCC)c1=O [AS75, 1,3-di-n-propyl-8-{3-[(4-methoxy-phenylcarbamoyl)-methoxy]-isoxazol-5-yl}-xanthine] | 53 | > 1000 | > 1000
CCCn1c(=O)c2[nH]c(-c3cc(OCC(=O)Nc4ccc(OC)c(OC)c4)no3)nc2n(CCC)c1=O [AS76, 1,3-di-n-propyl-8-{3-[(3,4-dimethoxy-phenylcarbamoyl)-methoxy]-isoxazol-5-yl}-xanthine] | 51 | > 1000 | > 1000
CCCn1c(=O)c2[nH]c(-c3ccc(OCC(=O)Nc4ccc(I)cc4)nc3)nc2n(CCC)c1=O [AS81, 1,3-di-n-propyl-8-{6-[(4-iodo-phenylcarbamoyl)-methoxy]-pyridin-3-yl}-xanthine] | 108 | > 1000 | > 1000
CCCn1c(=O)c2[nH]c(-c3ccc(OCC(=O)Nc4ccc(I)cc4)nn3)nc2n(CCC)c1=O [AS85, 1,3-di-n-propyl-8-{6-[(4-iodo-phenylcarbamoyl)-methoxy]-pyridazin-3-yl}-xanthine] | > 1000 | > 1000 | > 1000
CCCn1c(=O)c2[nH]c(-c3cc(OCC(=O)N4CCN(C)CC4)nn3C)nc2n(CCC)c1=O [AS87, 1,3-di-n-propyl-8-{5-[2-Oxo-2-(4-methyl-piperazin-1-yl)-ethoxy]-2-methyl-2H-pyrazole-3-yl}-xanthine] | 122 | > 1000 | > 1000
CCCn1c(=O)c2[nH]c(-c3cc(OCC(=O)Nc4ccc(N5CCOCC5)cc4)nn3C)nc2n(CCC)c1=O [AS93, 1,3-di-n-propyl-8-{5-[(4-(morpholine-4-yl)-phenylcarbamoyl)-methoxy]-2-methyl-2H-pyrazole-3-yl}-xanthine] | 86 | > 1000 | > 1000
CCCn1c(=O)c2[nH]c(-c3cc(OCC(=O)Nc4ccc(C(=O)OCC)cc4)nn3C)nc2n(CCC)c1=O [AS94, 1,3-di-n-propyl-8-{5-[(4-(ethoxycarbonyl)-phenylcarbamoyl)-methoxy]-2-methyl-2H-pyrazole-3-yl}-xanthine] | 32 | > 1000 | > 1000
CCCn1c(=O)c2[nH]c(-c3cc(OCC(=O)Nc4ccc(C(=O)O)cc4)nn3C)nc2n(CCC)c1=O [AS95, 1,3-di-n-propyl-8-{5-[(4-carboxy-phenylcarbamoyl)-methoxy]-2-methyl-2H-pyrazole-3-yl}-xanthine] | 36 | > 1000 | > 1000
C=CCn1c(=O)c2[nH]c(-c3cc(OCC(=O)N4CCN(c5ccccc5)CC4)nn3C)nc2n(CC=C)c1=O [AS96, 1,3-di-allyl-8-{5-[2-oxo-2-(4-phenyl-piperazin-1-yl)-ethoxy]-2-methyl-2H-pyrazole-3-yl}-xanthine] | 24 | > 1000 | > 1000
CCCn1c(=O)c2[nH]c(-c3cc(OCC(=O)Nc4ccc(OC)c(OC)c4)nn3C)nc2n(CCC)c1=O [AS101, 1,3-di-n-propyl-8-{5-[(3,4-dimethoxy-phenylcarbamoyl)-methoxy]-2-methyl-2H-pyrazole-3-yl}-xanthine] | 12 | > 1000 | > 1000
